These are literature values, as cited in patent EP0879035B1, “BISMUTH-CONTAINING COMPOSITIONS IN TOPICAL DOSAGE FORMS” (Josman Laboratories, Inc., priority 1995, dated 1997).

Like-named read-outs stand apart in the source and are kept apart here.

The conditions of data set [1]: in vivo.
The conditions of data set [2]: dogs treated for six months; 160, 320, and 640 mg/kg body weight.
The conditions of data set [3]: rats treated for three months; 160, 320, and 640 mg/kg body weight.
Another data set relates to H. Pylori. As to conditions: against H. Pylori.

In the case of “1,2,3-PROPANETRICARBONIC ACID, 2-HYDROXY, BISMUTH(3T)POTASSIUM [CBS]”, the “steady-state blood levels unlikely to cause any neurotoxicity” value in data set [1] is reported as 50-100. Further, the “systemic bioavailability of bismuth” value in data set [1] (po) was 0.16-0.28 % of the administered dose. Moreover, the “toxicity on chronic daily administration” value in data set [2] and in data set [3] was “No toxicity” in each case. Besides, the “minimum inhibitory concentration (MIC), range” value in the data set with H. Pylori is 4 to 32 µg/mL.
